Reference: patent US9067926B2, “Fluoromethyl-5,6-dihydro-4H-[1,3]OXAZINES” (F. Hoffmann-La Roche AG, priority 2012, dated 2015)

Each molecule was assayed against T1, BACE1 (Homo sapiens, UniProt P56817) (assay: Cellular Aβ-lowering assay (Abeta 40 AlphaLISA)). Settings: HEK293 APP cells, 18-20 hrs incubation, Aβ 40 in culture supernatant; read-out: BACE1 cell act. Aβ40 IC50.
T1 construct: endogenous in cells; host or cells: HEK293 APP cells
Assay type: cell-based
Protocol: Cellular Aβ-Lowering Assay:
The Abeta 40 AlphaLISA Assay can be used. The HEK293 APP cells were seeded in 96 well Microtiter plates in cell culture medium (Iscove's, plus 10% (vv) fetal bovine serum, penicillinstreptomycin) to about 80% confluency and the compounds were added at a 3× concentration in 13 volume of culture medium (final DMSO concentration was kept at 1% vv). After 18-20 hrs incubation at 37° C. and 5% CO2 in a humidified incubator, the culture supernatants were harvested for the determination of Aβ 40 concentrations using Perkin-Elmer Human Amyloid beta 1-40 (high specificity) Kit (Cat# AL275C).
Levels of Aβ 40 in the culture supernatants were calculated as percentage of maximum signal (cells treated with 1% DMSO without inhibitor). The IC50 values were calculated using the Excel XLfit software.

T1 sequence (P56817 46-501): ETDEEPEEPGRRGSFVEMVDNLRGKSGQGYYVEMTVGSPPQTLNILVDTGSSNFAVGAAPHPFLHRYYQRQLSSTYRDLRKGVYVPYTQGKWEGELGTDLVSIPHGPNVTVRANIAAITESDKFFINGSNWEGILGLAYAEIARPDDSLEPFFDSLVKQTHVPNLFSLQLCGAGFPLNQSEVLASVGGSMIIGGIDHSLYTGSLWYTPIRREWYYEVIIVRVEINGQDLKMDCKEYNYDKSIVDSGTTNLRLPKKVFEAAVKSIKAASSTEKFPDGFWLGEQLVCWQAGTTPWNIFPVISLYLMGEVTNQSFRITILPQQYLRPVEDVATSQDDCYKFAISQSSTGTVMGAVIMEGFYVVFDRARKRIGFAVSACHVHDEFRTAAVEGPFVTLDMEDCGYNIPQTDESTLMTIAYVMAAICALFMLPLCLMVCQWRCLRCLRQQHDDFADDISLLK

| Structure (SMILES) | IC50 [nM] |
| --- | --- |
| COc1cnc(C(=O)Nc2ccc(F)c([C@]3(C)C[C@@H](C(F)(F)F)OC(N)=N3)c2)cn1 [Example 5, N-(3-((4S,6S)-2-amino-4-methyl-6-(trifluoromethyl)-5,6-dihydro-4H-1,3-oxazin-4-yl)-4-fluorophenyl)-5-methoxypyrazine-2-carboxamide] | 5 |
| C[C@@]1(c2cc(NC(=O)c3cnc(OCC(F)F)cn3)ccc2F)C[C@@H](C(F)(F)F)OC(N)=N1 [Example 6, N-(3-((4S,6S)-2-amino-4-methyl-6-(trifluoromethyl)-5,6-dihydro-4H-1,3-oxazin-4-yl)-4-fluorophenyl)-5-(2,2-difluoroethoxyl)pyrazine-2-carboxamide] | 24 |
| C[C@@]1(c2cc(NC(=O)c3cnc(OCC(F)(F)F)cn3)ccc2F)C[C@@H](C(F)(F)F)OC(N)=N1 [Example 7, N-(3-((4S,6S)-2-amino-4-methyl-6-(trifluoromethyl)-5,6-dihydro-4H-1,3-oxazin-4-yl)-4-fluorophenyl)-5-(2,2,2-trifluoroethoxyl)pyrazine-2-carboxamide] | 15 |
| COc1ccc(C(=O)Nc2ccc(F)c([C@]3(C)C[C@@H](C(F)(F)F)OC(N)=N3)c2)nc1 [Example 14, N-(3-((4S,6S)-2-Amino-4-methyl-6-(trifluoromethyl)-5,6-dihydro-4H-1,3-oxazin-4-yl)-4-fluorophenyl)-5-methoxypicolinamide] | 2 |
| C[C@@]1(c2cc(NC(=O)c3ccc(OC(F)F)cn3)ccc2F)C[C@@H](C(F)(F)F)OC(N)=N1 [Example 15, N-(3-((4S,6S)-2-Amino-4-methyl-6-(trifluoromethyl)-5,6-dihydro-4H-1,3-oxazin-4-yl)-4-fluorophenyl)-5-(difluoromethoxy)picolinamide] | 1 |
| C[C@@]1(c2cc(NC(=O)c3ccc(OC(F)(F)F)cn3)ccc2F)C[C@@H](C(F)(F)F)OC(N)=N1 [Example 16, N-(3-((4S,6S)-2-Amino-4-methyl-6-(trifluoromethyl)-5,6-dihydro-4H-1,3-oxazin-4-yl)-4-fluorophenyl)-5-(trifluoromethoxy)picolinamide] | 1 |
| C[C@@]1(c2cc(NC(=O)c3ccc(C(F)F)cn3)ccc2F)C[C@@H](C(F)(F)F)OC(N)=N1 [Example 17, N-(3-((4S,6S)-2-Amino-4-methyl-6-(trifluoromethyl)-5,6-dihydro-4H-1,3-oxazin-4-yl)-4-fluorophenyl)-5-(difluoromethyl)picolinamide] | 2 |
| C[C@@]1(c2cc(NC(=O)c3ccc(OCC(F)(F)F)cn3)ccc2F)C[C@@H](C(F)(F)F)OC(N)=N1 [Example 18, N-(3-((4S,6S)-2-Amino-4-methyl-6-(trifluoromethyl)-5,6-dihydro-4H-1,3-oxazin-4-yl)-4-fluorophenyl)-5-(2,2,2-trifluoroethoxy)picolinamide] | 8 |
| C[C@@]1(c2cc(NC(=O)c3cnc(C(F)F)cn3)ccc2F)C[C@@H](C(F)(F)F)OC(N)=N1 [Example 20, N-(3-((4S,6S)-2-Amino-4-methyl-6-(trifluoromethyl)-5,6-dihydro-4H-1,3-oxazin-4-yl)-4-fluorophenyl)-5-(difluoromethyl)pyrazine-2-carboxamide] | 5 |
| Cc1cnc(C(=O)Nc2ccc(F)c([C@]3(C)C[C@@H](C(F)(F)F)OC(N)=N3)c2)cn1 [Example 21, N-(3-((4S,6S)-2-Amino-4-methyl-6-(trifluoromethyl)-5,6-dihydro-4H-1,3-oxazin-4-yl)-4-fluorophenyl)-5-methylpyrazine-2-carboxamide] | 59 |
| C[C@@]1(c2cc(NC(=O)c3cnc(OCF)cn3)ccc2F)C[C@@H](C(F)(F)F)OC(N)=N1 [Example 23, N-(3-((4S,6S)-2-Amino-4-methyl-6-(trifluoromethyl)-5,6-dihydro-4H-1,3-oxazin-4-yl)-4-fluorophenyl)-5-(fluoromethoxy)pyrazine-2-carboxamide] | 1 |
| C[C@@]1(c2cc(NC(=O)c3cnc(OC(F)F)cn3)ccc2F)C[C@@H](C(F)(F)F)OC(N)=N1 [Example 24, N-(3-((4S,6S)-2-Amino-4-methyl-6-(trifluoromethyl)-5,6-dihydro-4H-1,3-oxazin-4-yl)-4-fluorophenyl)-5-(difluoromethoxy)pyrazine-2-carboxamide] | 3 |
| C[C@@]1(c2cc(NC(=O)c3coc(CF)n3)ccc2F)C[C@@H](C(F)(F)F)OC(N)=N1 [Example 25, N-(3-((4S,6S)-2-Amino-4-methyl-6-(trifluoromethyl)-5,6-dihydro-4H-1,3-oxazin-4-yl)-4-fluorophenyl)-2-(fluoromethyl)oxazole-4-carboxamide] | 0.8 |

Further lines, results first:

| IC50 [nM] | Structure (SMILES) |
| --- | --- |
| 22 | NC1=N[C@](CF)(c2cc(NC(=O)c3ccc(Cl)cn3)ccc2F)C[C@@H](C(F)(F)F)O1 [Example 4, N-(3-((4S,6S)-2-amino-4-(fluoromethyl)-6-(trifluoromethyl)-5,6-dihydro-4H-1,3-oxazin-4-yl)-4-fluorophenyl)-5-chloropicolinamide] |
| 710 | C[C@@]1(c2cc(NC(=O)c3ccc(Cl)cn3)ccc2F)C[C@H](C(F)(F)F)OC(N)=N1 [Example 9, N-(3-((4S,6R)-2-Amino-4-methyl-6-(trifluoromethyl)-5,6-dihydro-4H-1,3-oxazin-4-yl)-4-fluorophenyl)-5-chloropicolinamide] |
| 6 | C[C@@]1(c2cc(NC(=O)c3ncc(Cl)cc3Cl)ccc2F)C[C@@H](C(F)(F)F)OC(N)=N1 [Example 10, N-(3-((4S,6S)-2-Amino-4-methyl-6-(trifluoromethyl)-5,6-dihydro-4H-1,3-oxazin-4-yl)-4-fluorophenyl)-3,5-chloropicolinamide] |
| 3 | Cc1cc(C#N)cnc1C(=O)Nc1ccc(F)c([C@]2(C)C[C@@H](C(F)(F)F)OC(N)=N2)c1 [Example 12, N-(3-((4S,6S)-2-Amino-4-methyl-6-(trifluoromethyl)-5,6-dihydro-4H-1,3-oxazin-4-yl)-4-fluorophenyl)-5-cyano-3-methylpicolinamide] |
| 13 | C[C@@]1(c2cc(NC(=O)c3ncc(C#N)cc3Cl)ccc2F)C[C@@H](C(F)(F)F)OC(N)=N1 [Example 13, N-(3-((4S,6S)-2-Amino-4-methyl-6-(trifluoromethyl)-5,6-dihydro-4H-1,3-oxazin-4-yl)-4-fluorophenyl)-3-chloro-5-cyanopicolinamide] |
| 6 | C[C@@]1(c2cc(NC(=O)c3cnc(CF)cn3)ccc2F)C[C@@H](C(F)(F)F)OC(N)=N1 [Example 19, N-(3-((4S,6S)-2-Amino-4-methyl-6-(trifluoromethyl)-5,6-dihydro-4H-1,3-oxazin-4-yl)-4-fluorophenyl)-5-(fluoromethyl)pyrazine-2-carboxamide] |
| 1 | C[C@@]1(c2cc(NC(=O)c3nn(C(F)F)cc3Cl)ccc2F)C[C@@H](C(F)(F)F)OC(N)=N1 [Example 26, N-(3-((4S,6S)-2-Amino-4-methyl-6-(trifluoromethyl)-5,6-dihydro-4H-1,3-oxazin-4-yl)-4-fluorophenyl)-4-chloro-1-(difluoromethyl)-1H-pyrazole-3-carboxamide] |
| 2 | Cc1cc(C#N)cnc1C(=O)Nc1ccc(F)c([C@]2(CF)C[C@@H](C(F)(F)F)OC(N)=N2)c1 [Example 27, N-(3-((4S,6S)-2-Amino-4-(fluoromethyl)-6-(trifluoromethyl)-5,6-dihydro-4H-1,3-oxazin-4-yl)-4-fluorophenyl)-5-cyano-3-methylpicolinamide] |
| 11 | N#Cc1cnc(C(=O)Nc2ccc(F)c([C@]3(CF)C[C@@H](C(F)(F)F)OC(N)=N3)c2)c(Cl)c1 [Example 28, N-(3-((4S,6S)-2-Amino-4-(fluoromethyl)-6-(trifluoromethyl)-5,6-dihydro-4H-1,3-oxazin-4-yl)-4-fluorophenyl)-3-chloro-5-cyanopicolinamide] |
| 7 | NC1=N[C@](CF)(c2cc(NC(=O)c3ccc(OC(F)F)cn3)ccc2F)C[C@@H](C(F)(F)F)O1 [Example 31, N-(3-((4S,6S)-2-Amino-4-(fluoromethyl)-6-(trifluoromethyl)-5,6-dihydro-4H-1,3-oxazin-4-yl)-4-fluorophenyl)-5-(difluoromethoxy)picolinamide] |
| 7 | NC1=N[C@](CF)(c2cc(NC(=O)c3ccc(OC(F)(F)F)cn3)ccc2F)C[C@@H](C(F)(F)F)O1 [Example 32, N-(3-((4S,6S)-2-Amino-4-(fluoromethyl)-6-(trifluoromethyl)-5,6-dihydro-4H-1,3-oxazin-4-yl)-4-fluorophenyl)-5-(trifluoromethoxy)picolinamide] |
| 10 | NC1=N[C@](CF)(c2cc(NC(=O)c3ccc(C(F)F)cn3)ccc2F)C[C@@H](C(F)(F)F)O1 [Example 33, N-(3-((4S,6S)-2-Amino-4-(fluoromethyl)-6-(trifluoromethyl)-5,6-dihydro-4H-1,3-oxazin-4-yl)-4-fluorophenyl)-5-(difluoromethyl)picolinamide] |
| 71 | NC1=N[C@](CF)(c2cc(NC(=O)c3ccc(OCC(F)(F)F)cn3)ccc2F)C[C@@H](C(F)(F)F)O1 [Example 34, N-(3-((4S,6S)-2-Amino-4-(fluoromethyl)-6-(trifluoromethyl)-5,6-dihydro-4H-1,3-oxazin-4-yl)-4-fluorophenyl)-5-(2,2,2-trifluoroethoxy)picolinamide] |
| 53 | NC1=N[C@](CF)(c2cc(NC(=O)c3cnc(CF)cn3)ccc2F)C[C@@H](C(F)(F)F)O1 [Example 37, N-(3-((4S,6S)-2-Amino-4-(fluoromethyl)-6-(trifluoromethyl)-5,6-dihydro-4H-1,3-oxazin-4-yl)-4-fluorophenyl)-5-(fluoromethyl)ypyrazine-2-carboxamide] |
